Measured values as given in a melting point compilation (Tetko et al.; mined from patent text by program, amines drawn as free bases though some values may be those of a salt).

Row | Structure (SMILES) | melting point
1 | CCC(CC)c1ccc(Cl)c2nc3n(c12)CCCCN3c1ncc(C(N)=O)cc1C | 234 to 235 °C
2 | CC(=O)Nc1ccc(CCCON2CCC(C(=O)c3nc4ccccc4s3)CC2)cc1 | 171 to 172 °C
3 | O=C1CCC(c2cccc(F)c2)(c2cccc(F)c2)CC1 | 95 °C
4 | CCOc1n[nH]c(=O)n1C1CC1 | 144 to 145 °C
5 | O=S(=O)(CCCCl)c1ccccc1 | 55 to 58 °C
6 | N#Cc1ccc(-c2cccc(-c3nc4cc(C#N)ccc4[nH]3)c2)cc1 | 303 to 304 °C
7 | COc1cnc(-c2cccn3nc(C4(C5CCNCC5)C=CC(N)=CC4)nc23)cn1 (stereo unspecified) | 219 to 221 °C
8 | COc1cc2ncc(C#N)c(Nc3ccc4ncccc4c3)c2cc1OC | 241 to 243 °C
9 | Cc1cccc(Cl)c1Nc1ccccc1CC(N)=O | 139 to 141 °C
10 | NC(=O)c1cn(C(CO)COc2ccccc2)cn1 (stereo unspecified) | 148 to 150 °C
11 | CCCn1c(=S)[nH]c2ccsc2c1=O | > 230 °C
12 | Cc1cn2c(n1)C(=O)CCC2 | 147 to 149 °C
13 | Cc1nc2n(c1C)CCCC2=O | 178 °C
14 | FC(Br)C=Cc1ncn(C(c2ccccc2)(c2ccccc2)c2ccccc2)n1 (stereo unspecified) | 145 to 146 °C
15 | O=C(Nc1ccccc1)NC(Cc1ccccc1)C(=O)Nc1c(F)cc(F)cc1F (stereo unspecified) | 225 to 233 °C
16 | CC1CCC(Nc2ccccc2)c2ncc(C(=O)O)c(=O)n21 (stereo unspecified) | 198 to 199 °C
17 | O=C(NCc1ccc([N+](=O)[O-])cn1)C(c1ccccc1)c1ccccc1 | 160 to 164 °C
18 | CCOCCNC(=O)c1ccn2nc(-c3ccccc3)c(-c3ccc(=O)n(C(C)C)n3)c2c1 | 149 to 150 °C
19 | CC(=O)N1CCN(Cc2ccc(-c3cc4ncnc(Nc5ccc6[nH]ccc6c5)c4s3)cc2)CC1 | 163 to 180 °C
20 | COc1ccc(C=NO)cc1-c1cc2c(cc1C)C(C)(C)CCC2(C)C | 152 °C
21 | CC1(C)CCC(C)(C#N)c2ccccc21 (stereo unspecified) | 46 °C
22 | OCCOc1ccc(C2CNCCN2)cc1 (racemic) | 141 °C
23 | COC(=O)CCCCCCCCCCC(C)=S | < 25 °C
24 | Cc1cc(C)c(C)c(COc2cccc(-c3c(-c4ccccc4)coc3C(=O)NNC(=O)c3ccc(O)c([N+](=O)[O-])c3)c2)c1C | 130 to 132 °C
25 | CSc1nc(N)c(C#N)nc1C#N | 250 to 252 °C
26 | O=C(NCCOc1ccc(CC(Oc2cc(F)cc(F)c2)C(=O)O)cc1)c1ccc(-c2ccccn2)cc1 (stereo unspecified) | 150 to 151 °C

Row | Structure (SMILES) | melting point
27 | COc1ccccc1C1CC(=O)CC(c2ccccc2OC)N1C (stereo unspecified) | 146 to 148 °C
28 | Cc1ccccc1-n1c(Cn2cnc3c(N)ncnc32)nc2cccc(Cl)c2c1=O | 262 to 266 °C
29 | CCCc1sc(C#N)c2c1C(=O)CC(C)(C)C2 | 38 to 40 °C
30 | CCN(C)C(=O)NS(=O)(=O)c1ccccc1OC(Cl)=CCl | 179 to 180 °C
31 | COc1cc(C=O)c([N+](=O)[O-])cc1OCCCl | 148 to 150 °C
32 | COc1cc(N)c(I)cc1C(=O)NC1(C)CCN(CCCOc2ccc(F)cc2)CC1 | 144 °C
33 | Cc1ccc2[nH]c(=O)oc2c1 | 144 to 145 °C
34 | O=C(NCCSCc1cccc(Cl)c1)c1ccccc1 | 75 to 76 °C
35 | NC(=O)NCc1cccc(-c2csc(N=C(N)N)n2)c1 | 230 to 232 °C
36 | NCC1CCN(c2c(F)cc3c(=O)c(C(=O)O)cn(C4CC4)c3c2F)C1 (stereo unspecified) | 232 to 235 °C
37 | CN1C(=O)C(=CNc2ccncc2)C(=O)N(C)C1=O | 233 to 235 °C
38 | COC(=O)c1ccc(NC(=O)CNc2ccccc2F)cc1 | 169 to 171 °C
39 | CCCn1c(=O)c2[nH]c(-c3cc(C)n(CC(=O)Nc4cccc(Cl)c4)n3)nc2n(CCC)c1=O | 304 to 307 °C
40 | O=C1c2ccc(Sc3ccc(Cl)cc3)cc2C(=O)N1Cc1cccnc1 | 115 to 118 °C
41 | Nc1ncc(-c2ccccc2)nc1-c1ccc(O)cc1 | 181 to 183 °C
42 | CC(C)(C)C(=O)c1ccc(C(=O)NC(=O)c2ccccc2)cc1 | 121 to 123 °C
43 | Cc1c(Br)c2c(c(C)c1NC(=O)OC(C)(C)C)C(O)C(C)(C)O2 (stereo unspecified) | 187 to 188 °C
44 | C=C(CN(C)C)C(O)c1ncc2c(c1O)COC2c1ccc(F)cc1 (stereo unspecified) | 198 °C
45 | Cc1ccccc1C1NS(=O)(=O)c2ccccc21 (single isomer, unassigned; (+)) | 109 to 111 °C
46 | CCC(=O)Nc1nc(CC(=O)N(C)c2ccc(Cl)cc2)cs1 | 153 to 155 °C
47 | O=C(Nc1ccc(-n2nc(C3CC3)cc2C2CC2)cc1)c1c(Cl)cncc1Cl | 159 to 164 °C
48 | C#CCN(C(C)C)S(=O)(=O)NC(=O)c1cc(-n2c(=O)cc(C(F)(F)F)n(C)c2=S)c(F)cc1Cl | 94 to 105 °C
49 | NC(Cc1nc2cc(Cl)ccc2nc1CP(=O)(O)O)C(=O)O (stereo unspecified) | 181 to 192 °C
50 | COc1ccc(CSc2nnc(-c3ccc4ncsc4c3)o2)cc1 | 134 to 135 °C
51 | CCCCCCNC(=O)Oc1cccc(NC(=O)CC(C)(OC)OC)c1 | 110 °C
52 | CN1C(=O)C=C(c2ccc([N+](=O)[O-])cc2)C1=O | 163 to 166 °C

Row | Structure (SMILES) | melting point
53 | COc1cc2c(cc1OC)CN(CCCOc1ccc(NC(=O)c3cccc(C(=O)c4ccccc4)c3)cc1)CC2 | > 260 °C
54 | O=c1[nH]c2ccccc2c(=O)cc1Nc1ccccc1 | 227 to 228 °C
55 | CC(C)(C)c1nnc2ccc(OCCCN3CCC(OC(c4ccccc4)c4ccccc4)CC3)nn12 | 125 to 127 °C
56 | O=C1Cc2cccc(Oc3cccc4ccccc34)c2N1 | 158 to 160 °C
57 | COC(=O)c1cc([N+](=O)[O-])c(Cl)c(S(=O)(=O)Cl)c1 | 92 to 94 °C
58 | CC(C)(C)OC(=O)[C@H]1C[C@H](C(=O)Nc2ccccc2)[C@@H](c2ccccc2)N1C(=O)CNC(=O)Nc1cccc(C(=O)O)c1 (racemic) | 160 °C
59 | Clc1ccc2c(c1)[C@@H](c1ccccc1)[C@H]1CN(Cc3ccccc3)C[C@H]1C2 (racemic) | 115 to 117 °C
60 | CC(C)(C)OC(=O)N1CCC=C(C(=O)O)C1 | 198 to 202 °C
61 | CSCC(C)(C)NC(=O)c1c(I)cccc1C(=O)Nc1ccc(C(C)n2ccc(C(F)(F)F)n2)cc1C (stereo unspecified) | 79 to 86 °C
62 | CCc1ccc2c(c1)NC(=S)C2=O | 213 to 214 °C
63 | COc1cccc(C(O)CNC(=C[N+](=O)[O-])NCCCl)c1 (stereo unspecified) | 127 to 130 °C
64 | Cn1c2c(c3cccc(-c4ccccc4)c31)C(=O)NCC2 | 242 to 245 °C
65 | CC(=O)Nc1cccc2c(OC(C)=O)c(S(=O)(=O)NC(C)(C)C)ccc12 | 203 to 206 °C
66 | CC(=O)NC(Oc1ccccc1)C(=O)NCc1ccccc1 (stereo unspecified) | 125 to 128 °C
67 | CN1CCCC1=NC(=O)Nc1ccc(F)cc1 | 113 to 115 °C
68 | Nc1nc2c(c(Nc3ccc(F)c(Cl)c3)n1)-c1ccccc1C2 | 232 to 233 °C
69 | CSCCCC(=O)NNC(=O)N1Cc2ccccc2Oc2ccc(Cl)cc21 | 134 to 137 °C
70 | Cc1ccc(N2CCN(Cc3n[nH]c4ccccc34)CC2)cc1 | 176 to 177 °C
71 | CC(C)N1C(=O)NC(c2ccc3c(c2)OCO3)c2cc3c(cc21)OCO3 (stereo unspecified) | 87 to 89 °C
72 | Clc1cc(Cl)c(-n2nccc2Cl)c(Cl)c1 | 96 °C
73 | CC(=O)c1c(-c2ccccc2)[nH]c(-c2ccncc2)c1C | 202 to 203 °C
74 | NC(=O)C1(c2ccccc2)CCN(CCC2(c3ccc(Cl)c(Cl)c3)CCN(C(=O)c3ccccc3)C2)CC1 (stereo unspecified) | 87 to 90 °C
75 | CC(=O)Nc1c([N+](=O)[O-])cc(F)c(F)c1F | 96 to 97 °C
76 | O=C(O)Cc1ccc(-c2ccc(F)cc2F)c(Cl)c1 | 114 to 116 °C
77 | COc1cccc(/C=C/C(=O)/C=C/c2cccc(OC)c2OC)c1OC | 106 to 108 °C
78 | NC(=O)NCCN1CCC(O[N+](=O)[O-])CC1 | 114 to 116 °C

Row | Structure (SMILES) | melting point
79 | CCOC(=O)/C=C(C)/C(F)=C/C=C(C)/C=C/c1c(Cl)cc(OC)c(C)c1C | 126 to 128 °C
80 | O=C(Nc1ccc(-n2nc(C(F)(F)F)cc2C(F)(F)F)cc1)Nc1cccc([N+](=O)[O-])c1 | 203 to 204 °C
81 | c1ccc(COc2ccc(-c3ccc(OCc4ccccc4)cc3)cc2)cc1 | 222 to 224 °C
82 | CCCCCN(Cc1ccc(-c2ccccc2S(=O)(=O)NC(=O)c2ccccc2Cl)cc1)C(=O)N(Cc1ccccc1)c1ccccc1 | > 60 °C
83 | Cc1ccc(S(=O)(=O)NC2CCCCN(c3nc4c(c(=O)n(C)c(=O)n4C)n3Cc3ccccc3)C2)cc1 (stereo unspecified) | 80.2 to 88.2 °C
84 | CCN(C)c1ccc(Cn2nnc(-c3ccc(OC(=O)C(C)(C)C)cc3)n2)cc1 | 122 to 125 °C
85 | CN1CCN(C(=O)c2ccc(N)cc2N)CC1 | 192 °C
86 | Cc1cc(C)c2ncc(NC(=O)C=Cc3cc(C)c(O)c(C)c3)c(-c3ccccc3Cl)c2c1 | 249 to 251 °C
87 | CCCc1nn(C)c2c(OCCOc3ccc(CC(OCC)C(=O)O)cc3)nc(CC)nc12 (stereo unspecified) | 140 to 142 °C
88 | COC(=O)c1cc(C(C)=O)cnc1C1=NC(C)(C(C)C)C(=O)N1 (stereo unspecified) | 105 to 108 °C
89 | Cc1cc(Oc2c(Cl)cc(C(F)(F)F)cc2Cl)nn1C(=O)NCC(F)(F)F | 104 to 106 °C
90 | COc1cc(OC)nc(NC(=O)NS(=O)(=O)c2ncccc2C(CF)OC(C)=O)n1 (stereo unspecified) | 145 to 147 °C
91 | Fc1ccc(-c2[nH]cc(-c3c(F)c(F)nc(F)c3F)c2-c2ccncc2)cc1 | > 300 °C
92 | CSc1ccc(S(=O)(=O)N2CCCC2=O)cc1 | 123 to 125 °C
93 | CCN(Cc1ccc(F)nc1)C(=S)NC | 123 to 124 °C
94 | COc1cc(N2CCN(c3c(C)c(C)c4c(c3C)CC(C)(C)O4)CC2)ccc1Cl | 168 to 171 °C
95 | CC12CCC(C1)C1(C)Oc3ccc(C=O)cc3C21C (stereo unspecified) | 145 °C
96 | O=C(O)c1ccccc1C=Cc1ccccc1 | 158 to 159 °C
97 | Cc1ccc(C(=O)c2ccc(SCCO)cc2)cc1C | 92 to 93 °C
98 | CC(C)(C)OC(=O)N1CCCN(c2ccc([N+](=O)[O-])cc2C#N)CC1 | 98 °C
99 | CC(=O)Nc1cc(C)c2c(c1C)CC(C)(C)O2 | 161 to 162 °C
100 | Cc1cc2c(cc1Cl)NC(NC(C)C)=NS2(=O)=O | 120 to 122 °C
101 | CC(c1ccc(NC=O)c(N)c1)n1ccnc1 (stereo unspecified) | 212 °C
